# Measured values: patent publication EP4775575A1, “COMPOUND USED AS CDK4 KINASE INHIBITOR AND USE THEREOF” (TYK Medicines, Inc., priority 2023, dated 2025)
# Read-outs that look alike come from different tables or passages of the source.
# How the values were obtained:
# [1] = system: Human breast cancer cells MCF-7; assay: Cell anti-proliferation assay (MTT), MCF-7; format: cell-based; conditions: MCF-7 cells, incubated for 5 days
# Method: (§1) Human breast cancer cells MCF-7, human ovarian cancer cells A2780, human mantle cell lymphoma cells JEKO-1. DMEM medium (Bio-Channel), DMSO (dimethyl sulfoxide), MTT (thiazolyl blue), 0.25% EDTA-Trypsin (trypsin digestive solution), 1×PBS (phosphate buffered saline, pH 7.2), 96-well plate (Corning), fetal bovine serum (FBS), 10,000 U/mL penicillin-G/streptomycin, high-speed refrigerated centrifuge (EPPENDORF 5810R), and microplate reader (Tecan Spark).
# (§2) • A) Tumor cells were cultured in DMEM (high glucose, containing 10% FBS and 100 U/mL penicillin-G/streptomycin) at 37 °C, 5% CO2 and saturated humidity until 80-90% confluence. • B) The medium in the 10 cm culture dish was removed. • C) Cells were rinsed once with 10 mL of 1×PBS. • D) 4 mL of 0.25% EDTA-Trypsin was added, and the cells were digested in a 37 °C, 5% CO2 incubator for 5 minutes. The mixture was transferred to a 15 mL centrifuge tube, centrifuged at 200 g for 5 minutes, and the supernatant was discarded to obtain cell pellet. • E) The cells were resuspended in 4 mL of DMEM medium, counted, and adjusted to 50,000 cells/mL. • F) 100 µL of cell suspension was added to each well of a 96-well plate, and the plate was incubated overnight at 37 °C in a 5% CO2 incubator.
# (§3) • A) Gradient dilution solutions of the test compounds were prepared: the test compound was prepared into a 1 mM stock solution. Then 1.5 µL of the stock solution was dissolved in 1.5 mL of DMSO-free medium, followed by 3-fold serial gradient dilution with medium containing 0.1% DMSO to give 9 concentrations.
# (§4) • A) The cell culture plate was taken out, and 10 µL of 5 mg/mL MTT was added in a biological safety cabinet; • B) The plate was returned to the incubator and incubated for another 3 hours; • C) The cell culture plate was taken out and the medium was removed, 100 µL of isopropanol (containing 0.4 mM HCl, 0.1% NP-40) was added, and the plate was shaken at room temperature for 30 minutes; • D) The absorbance at 570 nm was measured using a TECAN microplate reader.
# [2] = system: human ovarian cancer cells A2780; assay: Cell anti-proliferation assay (MTT), A2780; format: cell-based; conditions: incubated for 5 days
# Method: as §1, §2, §3, §4
# [3] = system: human mantle cell lymphoma cells JEKO-1; assay: Cell anti-proliferation assay (MTT), JEKO-1; format: cell-based; conditions: JEKO-1 cells, incubated for 5 days
# Method: as §1, §2, §3, §4
# [4] = Preclinical pharmacokinetic study in rats; format: in vivo, Sprague-Dawley (SD) rats; conditions: male SD rats, oral gavage (p.o.) 10 mg/kg, plasma; for AUC(0-t) / Cmax / Tmax: Sprague-Dawley, rat
# Method: Healthy adult Sprague-Dawley (SD) rats, male, 6-8 weeks old, weighing 200-300 g. EDTA-Na2 anticoagulant. Analytical balance, animal weighing scale, magnetic stirrer, refrigerated centrifuge, single-channel manual pipette, etc. About 10 mg of the test sample was precisely weighed, dissolved in a calculated volume of 5% DMSO, followed by addition of 10% solutol HS-15 and 85% normal saline. The mixture was sonicated and vortexed to homogeneity to obtain a solution with a concentration of 1 mg/mL. The solution was freshly prepared before use. Animals were housed in rat cages and fasted overnight (no less than 10 h) before the test, with free access to water. On the day of the test, animals were weighed and marked on the tail. Blank blood samples were collected before administration. The blood was collected via tail vein. • Route of administration: oral gavage (p.o.) • Dose: 10 mg/kg • Dosing volume: 10 mL/kg • Procedure: The rat was held upright with the left hand wearing bite-resistant glove. A 16-gauge gavage needle was inserted through the mouth into the esophagus. The needle was advanced gently without obvious resistance, and the drug solution was injected into the stomach. Whole blood (0.1 mL) were collected from each test animal before administration and at 0.5 […], and 24 h after administration into EDTA-Na2 anticoagulant tubes. The tubes were inverted 3-4 times for mixing, then centrifuged at 10,000 g for 5 min at 4 °C to separate plasma. Plasma samples were stored at -80 °C until analysis. Blood was collected via tail vein. […] The mixture was vortexed for 2 min and centrifuged at 10,000 g for 10 min at 4 °C. Processing of unknown plasma samples: 25 μL of drug-containing rat plasma was transferred, followed by addition of 25 μL of methanol and 200 μL of internal standard solution. The mixture was vortexed for 2 min and centrifuged at 10,000 g for 10 min at 4 °C. The supernatant was collected for LC-MS/MS analysis. A quantitative method for the determination of the test compound was established using a Shimadzu liquid chromatography system coupled with Triple Quad^TM 6500+ AB mass spectrometer. The concentration of the parent drug in plasma was determined. The plasma concentration-time curve was plotted, and the main pharmacokinetic parameters were calculated using a non-compartmental model in winnonlin Phoenix software.
SMILES,IC50 ([1]; read-out: MCF7 IC50) [nM],IC50 [2] [nM],IC50 [3] [nM],"IC50 ([1]; Homo sapiens, MCF7, 120 h) [nM]","IC50 ([2]; Homo sapiens, 120 h) [nM]","IC50 ([3]; Homo sapiens, 120 h) [nM]",AUC(0-t) [4] [ng·h/mL],Cmax [4] [ng/mL],Tmax [4] [min],HL_ [4] [h]
"CN1CCCn2c1nc1c(F)cc(-c3nc(NC4CCN(S(C)(=O)=O)CC4)ncc3Cl)cc12 [TB-43, 5-chloro-4-(9-fluoro-1-methyl-1,2,3,4-tetrahydrobenzo[4,5]imidazo[1,2-a]pyrimidin-7-yl)-N-(1-(methylsulfonyl)piperidin-4-yl)pyrimidin-2-amine]",≤ 500,≤ 500,≤ 500,–,–,–,–,–,–,–
"COC(=O)N1CCC(Nc2ncc(Cl)c(-c3cc(F)c4nc5n(c4c3)CCCN5C)n2)CC1 [TB-93, methyl 4-((5-chloro-4-(9-fluoro-1-methyl-1,2,3,4-tetrahydrobenzo[4,5]imidazo[1,2-a]pyrimidin-7-yl)pyrimidin-2-yl)amino)piperidine-1-carboxylate]",–,–,–,500 to 2000,≤ 500,≤ 500,–,–,–,–
"CC(C)N1CCCn2c1nc1c(F)cc(-c3nc(N[C@@H]4CCOC[C@H]4O)ncc3Cl)cc12 [TB-108, (3S,4R)-4-((5-chloro-4-(9-fluoro-1-isopropyl-1,2,3,4-tetrahydrobenzo[4,5]imidazo[1,2-a]pyrimidin-7-yl)pyrimidin-2-yl)amino)tetrahydro-2H-pyran-3-ol]",–,–,–,≤ 500,≤ 500,≤ 500,1370,503,36,1.25
"CCN1CCCn2c1nc1c(F)cc(-c3nc(N[C@@H]4CCOC[C@H]4O)ncc3Cl)cc12 [TB-109, (3S,4R)-4-((5-chloro-4-(1-ethyl-9-fluoro-1,2,3,4-tetrahydrobenzo[4,5]imidazo[1,2-a]pyrimidin-7-yl)pyrimidin-2-yl)amino)tetrahydro-2H-pyran-3-ol]",–,–,–,500 to 2000,≤ 500,≤ 500,1770,777,30,5.32
CN1CCC(C)(C)n2c1nc1c(F)cc(-c3cc(N[C@@H]4CCOC[C@H]4O)ncc3Cl)cc12 [TB-150],–,–,–,≤ 500,≤ 500,≤ 500,–,–,–,–
C[C@H]1C[C@H](C)n2c(nc3c(F)cc(-c4nc(N[C@@H]5CCOC[C@H]5O)ncc4Cl)cc32)N1C [TB-153],≤ 500,≤ 500,≤ 500,–,–,–,–,–,–,–
C[C@H]1CC(=O)N(C)c2nc3c(F)cc(-c4cc(N[C@@H]5CCOC[C@H]5O)ncc4Cl)cc3n21 [TB-158],–,–,–,≤ 500,≤ 500,≤ 500,–,–,–,–
C[C@H]1CCN(CC(F)F)c2nc3c(F)cc(-c4nc(N[C@@H]5CCOC[C@H]5O)ncc4Cl)cc3n21 [TC-6],–,–,–,500 to 2000,≤ 500,≤ 500,–,–,–,–
C[C@H]1CCN(S(C)(=O)=O)c2nc3c(F)cc(-c4nc(N[C@@H]5CCOC[C@H]5O)ncc4Cl)cc3n21 [TC-8],–,–,–,> 2000,500 to 2000,> 2000,–,–,–,–
C[C@H]1CCN(c2c(F)cccc2F)c2nc3c(F)cc(-c4nc(N[C@@H]5CCOC[C@H]5O)ncc4Cl)cc3n21 [TC-15],–,–,–,500 to 2000,500 to 2000,500 to 2000,–,–,–,–
C[C@H]1CCN(c2cc(F)ccc2F)c2nc3c(F)cc(-c4nc(N[C@@H]5CCOC[C@H]5O)ncc4Cl)cc3n21 [TC-16],–,–,–,≤ 500,≤ 500,≤ 500,–,–,–,–
C[C@H]1CCN(c2ccccc2C#N)c2nc3c(F)cc(-c4nc(N[C@@H]5CCOC[C@H]5O)ncc4Cl)cc3n21 [TC-18],–,–,–,≤ 500,≤ 500,≤ 500,–,–,–,–
